The values below come from US20230014151A1, “COMBINATION ANTIVIRAL THERAPY FOR MEASLES” (The Trustees of Columbia University in the City of New York, priority 2019, published 2023).

The target in test [1] is viral glycoproteins (H and F); Nectin-4 (Measles virus, UniProt Q786F3). In words: beta-galactosidase complementation-based fusion assay, Nectin-4 target cells. To be noted: for IC90: read-out: Nectin4 IC90.
The target of test [2] is viral glycoproteins (H and F); CD150. In words: beta-galactosidase complementation-based fusion assay, CD150 target cells. The conditions noted are these: for IC90: read-out: CD150 IC90.
Chain of viral glycoproteins (H and F); CD150 (Q786F3 24-112): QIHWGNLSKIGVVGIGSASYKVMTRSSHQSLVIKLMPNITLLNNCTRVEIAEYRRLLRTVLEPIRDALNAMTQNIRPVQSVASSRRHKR
Chain of viral glycoproteins (H and F); CD150 (Q786F3 113-550): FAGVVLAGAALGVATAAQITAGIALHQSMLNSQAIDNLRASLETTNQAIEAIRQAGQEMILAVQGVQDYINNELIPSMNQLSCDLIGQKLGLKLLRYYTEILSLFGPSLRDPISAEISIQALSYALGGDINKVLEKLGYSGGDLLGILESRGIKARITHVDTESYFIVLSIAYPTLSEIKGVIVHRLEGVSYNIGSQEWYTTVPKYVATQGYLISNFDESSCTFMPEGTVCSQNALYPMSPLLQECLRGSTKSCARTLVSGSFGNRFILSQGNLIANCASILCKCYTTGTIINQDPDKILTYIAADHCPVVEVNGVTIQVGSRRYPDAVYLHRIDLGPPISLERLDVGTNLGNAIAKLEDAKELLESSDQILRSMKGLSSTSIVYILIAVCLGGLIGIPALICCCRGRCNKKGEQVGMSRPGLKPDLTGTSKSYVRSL

SMILES strings stand for the structures. Square brackets hold non-standard residues; d marks the D form. Peptide text beside a SMILES is read from it. * marks the point of attachment. Succinimide(1-Et,3-yl) = CCN1C(=O)CC(*)C1=O; Cbz = O=C(OCc1ccccc1)* Where only a bound is given, the exact number is not on record here.

Chain of viral glycoproteins (H and F); Nectin-4 (Q786F3 24-112): as the sequence (Q786F3 24-112) above

The term IC50 denotes the concentration that inhibits the measured activity by half. As a reminder, the IC90 is the concentration needed for an effect of 90%. Consider `CC(C)CCC[C@@H](C)[C@H]1CC[C@H]2[C@@H]3CC=C4C[C@@H](OC(=O)CSC[C@H](NC(=O)CNC(=O)[C@H](Cc5ccccc5)NC(=O)[C@@H](Cc5ccccc5)NC(=O)OCc5ccccc5)C(=O)O)CC[C@]4(C)[C@H]3CC[C@]12C` [FIP-chol (no GSGSG)], for which the IC50 in test [1] (Nectin4 IC50, Table 3 (extended version)) was greater than 1 µM; in test [2], greater than 1 µM. In addition, the IC90 in test [1] and in test [2] was greater than 1 µM each time.

Turning to `CC(C)CCC[C@@H](C)[C@H]1CC[C@H]2[C@@H]3CC=C4C[C@@H](OC(=O)CCOCCOCCOCCOCCNC(=O)CSC[C@H](NC(=O)CNC(=O)[C@H](Cc5ccccc5)NC(=O)[C@@H](Cc5ccccc5)NC(=O)OCc5ccccc5)C(=O)O)CC[C@]4(C)[C@H]3CC[C@]12C` [FIP-peg4-chol (no GSGSG)], the IC90 in test [1] is greater than 1 µM; in test [2] it was greater than 0.9 µM.

In the case of `CCN1C(=O)CC(SC[C@H](NC(=O)CNC(=O)[C@H](Cc2ccccc2)NC(=O)[C@@H](Cc2ccccc2)NC(=O)OCc2ccccc2)C(=O)O)C1=O` (stereo partly shown) [Monomer N-Maleimide FIP (no GSGSG)] (Cbz-[dF]FGC(Succinimide(1-Et,3-yl))-OH), the IC90 in test [1] and in test [2] was greater than 1 µM in each case.

Turning to `CC[C@H](C)[C@H](NC(=O)[C@H](C)NC(=O)[C@H](CC(N)=O)NC(=O)CNC(=O)[C@H](CC(C)C)NC(=O)[C@H](CC(N)=O)NC(=O)[C@@H](NC(=O)CNC(=O)[C@@H](NC(=O)[C@H](CC(=O)O)NC(=O)[C@H](CC(C)C)NC(=O)[C@H](CCCNC(=N)N)NC(=O)[C@H](CCC(=O)O)NC(=O)[C@H](CC(C)C)NC(=O)[C@H](CO)NC(=O)[C@@H](NC(=O)[C@@H]1CCCN1C(=O)[C@@H]1CCCN1C(=O)CNC(=O)[C@H](CO)NC(=O)CNC(=O)[C@H](CO)NC(=O)CNC(=O)CNC(=O)[C@H](Cc1ccccc1)NC(=O)[C@@H](Cc1ccccc1)NC(=O)OCc1ccccc1)[C@@H](C)CC)C(C)C)[C@@H](C)O)C(=O)N[C@@H](C)C(=O)N[C@@H](CCCCN)C(=O)N[C@@H](CC(C)C)C(=O)N[C@@H](CCC(=O)O)C(=O)N[C@@H](CC(=O)O)C(=O)N[C@@H](C)C(=O)N[C@@H](CCCCN)C(=O)N[C@@H](CCC(=O)O)C(=O)N[C@@H](CC(C)C)C(=O)N[C@@H](CC(C)C)C(=O)N[C@@H](CCC(=O)O)C(=O)N[C@@H](CO)C(=O)N[C@@H](CO)C(=O)N[C@@H](CC(=O)O)C(=O)N[C@@H](CCC(N)=O)C(=O)N[C@H](C(=O)N[C@@H](CC(C)C)C(=O)N[C@@H](CCCNC(=N)N)C(=O)N[C@@H](CSC1CC(=O)N(CCC(=O)NCCOCCOCCOCCOCCOCCOCCOCCOCCOCCOCCOCCNC(=O)CCN2C(=O)CC(SC[C@H](NC(=O)[C@H](CCCNC(=N)N)NC(=O)[C@H](CC(C)C)NC(=O)[C@@H](NC(=O)[C@H](CCC(N)=O)NC(=O)[C@H](CC(=O)O)NC(=O)[C@H](CO)NC(=O)[C@H](CO)NC(=O)[C@H](CCC(=O)O)NC(=O)[C@H](CC(C)C)NC(=O)[C@H](CC(C)C)NC(=O)[C@H](CCC(=O)O)NC(=O)[C@H](CCCCN)NC(=O)[C@H](C)NC(=O)[C@H](CC(=O)O)NC(=O)[C@H](CCC(=O)O)NC(=O)[C@H](CC(C)C)NC(=O)[C@H](CCCCN)NC(=O)[C@H](C)NC(=O)[C@@H](NC(=O)[C@H](C)NC(=O)[C@H](CC(N)=O)NC(=O)CNC(=O)[C@H](CC(C)C)NC(=O)[C@H](CC(N)=O)NC(=O)[C@@H](NC(=O)CNC(=O)[C@@H](NC(=O)[C@H](CC(=O)O)NC(=O)[C@H](CC(C)C)NC(=O)[C@H](CCCNC(=N)N)NC(=O)[C@H](CCC(=O)O)NC(=O)[C@H](CC(C)C)NC(=O)[C@H](CO)NC(=O)[C@@H](NC(=O)[C@@H]3CCCN3C(=O)[C@@H]3CCCN3C(=O)CNC(=O)[C@H](CO)NC(=O)CNC(=O)[C@H](CO)NC(=O)CNC(=O)CNC(=O)[C@H](Cc3ccccc3)NC(=O)[C@@H](Cc3ccccc3)NC(=O)OCc3ccccc3)[C@@H](C)CC)C(C)C)[C@@H](C)O)[C@@H](C)CC)[C@@H](C)CC)C(=O)O)C2=O)C1=O)C(=O)O)[C@@H](C)CC` (stereo partly shown) [[FIP-HRC450-485]2-peg11 (no GSGSG)], the IC90 in test [1] and in test [2] was greater than 1 µM each time.
